# Laboratory results from patent US20080027088A1, “Imidazole-Based Hmg-Coa Reductase Inhibitors” (Warner-Lambert Company, LLC, priority 2004, published 2008).
# Columns and labels:
# Type in all cases: in vivo
# [1] = test system: ApoE KO mice fed a Western diet; test: Plasma SM/PC ratio (HPLC) and ceramide (LC/MS/MS), 12 weeks; conditions: 0.3 mg/kg/day
# Text: Analysis of Sphingolipids and Phospholipids by LC/MS and HPLC-Total lipids were extracted by the modified method of Bligh-Dyer extraction (E. G. Bligh and W. J. Dyer, Can. J. Med. Sci. 1959;37:911-917; and D. K. Perry, A. Bielawska and Y. A. Hannun, Methods Enzymol. 2000;312:22-31). A Micromass (Waters Corp., Milford, Mass.) Quattro Ultima tandem quadrupole mass spectrometer with a standard Z-sprayTM ion source, set to electrospray positive ionization mode, with MassLynxTM version 3.5 operating software, was used for all quantitative determinations. Source conditions were typically as follows: capillary 3.5 kV, source temperature 110 degrees C., and desolvation temperature 325 degrees C. […] The following ion transitions were used for quantification: sphingomyelin (704→184 m/z), sphinganine (302→284 m/z), ceramide (566→264 m/z) and psychosine (462→282 m/z) as an internal standard. […] For the quantitative method, the analytical column was a Phenomenex (Torrance, Calif.) Polar-RP (2.0×150 mm, 4 μm) with a […] […] Lipid extracts were analyzed by HPLC and evaporative light scattering detector to determine plasma sphingomyelin and phosphatidylcholine (PC) levels (R. Homan and M.K. Anderson, J. Chromatogr. B. Biomed. Sci. Appl. 1998;708:21-6). […] Plasma concentrations of SM and PC were determined, and SM/PC ratio (FIG. 13A) was calculated using HPLC. […]
# [2] = test system: ApoE KO mice fed a Western diet; test: Lesion development in the cuffed femoral artery, 4 weeks
# Protocol: Animal experiments—Male C57BI/6J and ApoE KO mice on C57BI/6J background were obtained from the Jackson Laboratory (Bar Harbor, Me.) or Taconic (Germantown, N.Y.) (Plaque formation in ApoE KO mice is lipid-driven (A. S. Plump et al., Cell. 1992;71 (2):343-53)). Myriocin was mixed with Western diet containing 0.21% cholesterol and 21% fat. 8-12-week-old mice received 0.3 mg myriocin/kg/day for 12 weeks (Table 1). 10-12 week-old ApoE KO mice (n=8) were pre-fed a western diet for 2 weeks and mice received various concentrations of myriocin for 4 weeks in diet admix. Control groups consisted of ApoE KO mice fed normal chow or Western diet without myriocin, and normal chow-fed C57BI/6J mice. Body weight and chow feeding was measured every week to examine the food consumption. For the femoral artery cuff model, 8-10 week-old male ApoE KO mice were anethetized and the right femoral artery was dissected from its surroundings. A nonconstrictive polyethylene cuff (Portex, 0.40-mm inner diameter, 0.80-mm outer diameter, and 1.5-mm length) was placed looselyaround the right femoral artery.
# For histological analysis, the mice were perfused and fixed in Zinc-Tris fixative. Paraffin embedded sections were stained with Masson's Trichrome. Intimal macrophages were immunohistochemically stained using MAC-2 antibody (clone M3/38 from Cedarlane Laboratories Limited) counterstained with Verhoeff elastic stain. T-lymphocytes were immunohistochemically stained with rat CD3 antibody (clone CD3-12, Serotec). Lesion thickness and area occupied by macrophages were determined using Image Pro Plus software.
# (§1) FIG. 5. Lesion Development in the Cuffed Femoral Artery of ApoE KO mice Fed a Western Diet. Mice were anesthetized and the right femoral artery was dissected from its surroundings. […] Atherosclerotic lesion (black bar) and macrophage size (gray bar) in the femoral artery were quantified by using Image Pro Plus software (FIG. 5A). Plasma serum amyloid A levels were determined by colormetric ELISA (FIG. 5B). […]
# [3] = test system: ApoE KO mice fed a Western diet; test: Plasma serum amyloid A by ELISA, cuffed femoral artery study; conditions: 4 weeks
# Protocol: Plasma lipids and serum amyloid A measurement—Mice were sacrificed by CO2 inhalation and blood was collected through cardiac puncture. Plasma concentrations of total cholesterol and triglyceride were determined enzymatically on a Cobas Mira Plus auto-analyzer using Cholesterol R1 and Triglycerides Reagent methods, respectively (Roche Diagnostics, Indiana, USA). Colormetric changes were measured at 500 nm. Lipoproteins were separated from mouse plasma by fast-protein liquid chromatography utilizing a Superose 6HR column. Cholesterol distribution among lipoproteins was determined by in-line post column analysis (K. A. Kieft, T. M. Bocan and B. R. Krause, J. Lipid Res. 1991; 32:859-66). Serum Amyloid A (SAA) protein in plasma was measured by ELISA according to the manufacturer's instructions (Biosource).
# as §1, with “surroundings. A nonconstrictive polyethylene cuff (Portex, 0.40-mm inner diameter, 0.80-mm outer diameter, and 1.5-mm length) was placed looselyaround the right femoral artery.” for “surroundings.”
compound,measurement,setting,value
CCCCCCC(=O)CCCCCC/C=C/C[C@@H](O)[C@H](O)[C@@](N)(CO)C(=O)O [myriocin],plasma ceramide levels reduced,[1],60%
same,effect on plasma SM/PC ratio,[1]; vs Western diet-fed group,did not affect
same,"reduction of development of atherosclerotic lesions, cuffed femoral artery",[2]; 0.1 mg/kg/day,43%
same,"reduction of macrophage accumulation, cuffed femoral artery",[2]; 0.1 mg/kg/day,47%
same,"lesion area reduced, cuffed femoral artery","[2]; 0.3 mg/kg/day, vs no-myriocin control",more than 98%
same,plasma serum amyloid A lowered,[3],84%
